Experimental data from patent publication US20040067562A1, “Process for the production of L-lysine using coryneform bacteria” (priority 2002, published 2004).

How the values were obtained:
[1] = biological target: T1, aspartate kinase in the wild type (Corynebacterium glutamicum, UniProt P26512); test: inhibition of wild type aspartate kinase by lysine (or analogue)/threonine mixtures; type: biochemical; conditions: wild type enzyme; lysine or analogue 100 mM in mixture with threonine (10 mM)
T1 construct: endogenous in cells
T1 sequence (P26512 whole entry): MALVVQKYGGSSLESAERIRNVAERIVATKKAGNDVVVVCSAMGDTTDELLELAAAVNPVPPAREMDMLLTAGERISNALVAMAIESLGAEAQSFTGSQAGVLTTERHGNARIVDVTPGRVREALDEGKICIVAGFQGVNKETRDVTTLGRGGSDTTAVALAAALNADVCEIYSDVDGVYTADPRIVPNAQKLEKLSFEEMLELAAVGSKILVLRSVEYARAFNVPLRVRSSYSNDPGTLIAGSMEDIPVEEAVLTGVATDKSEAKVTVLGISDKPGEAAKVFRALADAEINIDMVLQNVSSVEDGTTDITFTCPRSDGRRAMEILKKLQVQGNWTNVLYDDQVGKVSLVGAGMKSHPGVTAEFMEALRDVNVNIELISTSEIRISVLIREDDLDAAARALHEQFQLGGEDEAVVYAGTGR
T1 sequence (P26512 250-421): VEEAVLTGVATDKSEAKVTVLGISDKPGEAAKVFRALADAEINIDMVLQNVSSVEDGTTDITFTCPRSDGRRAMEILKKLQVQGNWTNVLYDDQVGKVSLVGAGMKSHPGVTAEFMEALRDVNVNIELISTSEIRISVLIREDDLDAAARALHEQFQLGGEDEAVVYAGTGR
Description: (§1) The Corynebacterium glutamicum strain DM1725 was produced by multiple untargeted and targeted mutagenesis including genetic engineering methods, selection and mutant selection from C. glutamicum ATCC13032. The strain is resistant to the lysine analogue S-(2-aminoethyl)-L-cysteine and has two identical complete copies of the LysC gene that code for a feedback-resistant aspartate kinase. The two copies are located at the LysC gene site on the chromosome. […] The strain is streptomycin resistant.

[2] = tested on: feedback-resistant aspartate kinase; test: inhibition of feedback-resistant aspartate kinase by lysine (or analogue)/threonine mixtures; type: biochemical, Corynebacterium glutamicum; conditions: feedback-resistant enzyme of strain DM1725; lysine or analogue 100 mM in mixture with threonine (10 mM)
Description: as §1

Row | SMILES | residual activity of aspartate kinase [1] | inhibition of aspartate kinase [2]
1 | NCCSC[C@H](N)C(=O)O [S-(2-aminoethyl)-L-cysteine] | 10% | insensitive to inhibition
2 | NCCCC[C@H](N)C(=O)O [lysine] | 10% | insensitive to inhibition
